Data taken from publication PMC2806265, “Divergence of allosteric effects of rapacuronium on binding and function of muscarinic receptors” (BMC Pharmacology, 2009).
Read-outs that look alike come from different tables or passages of the source. Marks after values point to notes of the source that are not given here.

Experiments:
M1 muscarinic receptor [1] = biological target: T1, M1 muscarinic receptor (Homo sapiens, UniProt P11229); assay type: binding
T1 construct: host or cells: CHO cells, stably transfected; membrane preparation
T1 sequence (P11229 1-460): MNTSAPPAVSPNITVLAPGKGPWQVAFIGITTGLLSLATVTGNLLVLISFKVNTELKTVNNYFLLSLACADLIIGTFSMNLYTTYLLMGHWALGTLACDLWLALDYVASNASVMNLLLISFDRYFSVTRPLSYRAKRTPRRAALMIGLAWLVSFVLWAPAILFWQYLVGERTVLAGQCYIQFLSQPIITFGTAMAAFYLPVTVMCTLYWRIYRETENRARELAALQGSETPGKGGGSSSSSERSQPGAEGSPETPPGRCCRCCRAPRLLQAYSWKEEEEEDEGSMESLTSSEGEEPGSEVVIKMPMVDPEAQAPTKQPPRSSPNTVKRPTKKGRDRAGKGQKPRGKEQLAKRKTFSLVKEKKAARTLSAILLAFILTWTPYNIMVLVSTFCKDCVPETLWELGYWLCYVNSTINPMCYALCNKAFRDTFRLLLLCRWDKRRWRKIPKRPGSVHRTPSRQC
Text: (§1) BMAX, maximum binding capacity; KD, equilibrium dissociation constant.

M3 muscarinic receptor [2] = biological target: T2, M3 muscarinic receptor (Homo sapiens, UniProt P20309); assay type: binding
T2 construct: host or cells: CHO cells, stably transfected; membranes
T2 sequence (P20309 whole entry): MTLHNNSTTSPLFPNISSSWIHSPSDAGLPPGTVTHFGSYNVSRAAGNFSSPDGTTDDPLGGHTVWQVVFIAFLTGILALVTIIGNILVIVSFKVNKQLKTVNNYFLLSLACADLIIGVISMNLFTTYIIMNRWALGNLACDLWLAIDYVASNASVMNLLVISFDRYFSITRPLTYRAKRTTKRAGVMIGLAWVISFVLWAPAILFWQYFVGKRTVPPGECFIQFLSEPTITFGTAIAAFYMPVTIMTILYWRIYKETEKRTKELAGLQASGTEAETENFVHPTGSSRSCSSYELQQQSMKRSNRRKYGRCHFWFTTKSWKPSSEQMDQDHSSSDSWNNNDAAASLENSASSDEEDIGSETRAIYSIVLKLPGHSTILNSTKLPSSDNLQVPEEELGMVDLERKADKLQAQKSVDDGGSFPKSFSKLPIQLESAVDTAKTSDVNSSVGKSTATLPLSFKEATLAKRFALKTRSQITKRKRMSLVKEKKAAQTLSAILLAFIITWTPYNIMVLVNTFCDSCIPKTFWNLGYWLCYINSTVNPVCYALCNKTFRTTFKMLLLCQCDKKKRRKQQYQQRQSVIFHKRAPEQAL
Text: as §1

M1 muscarinic receptor [3] = biological target: T1, M1 muscarinic receptor; experiment: Effect of rapacuronium on high-affinity 20 nM [3H]ACh binding
Text: (§2) Cooperativity factor greater than 1 denotes negative cooperativity and less than 1 positive cooperativity. Due to its log-normal error distribution factors of cooperativity are expressed as negative logarithms (pα) through the manuscript so negative values denotes negative cooperativity and positive value denotes positive cooperativity.

M3 muscarinic receptor [4] = biological target: T2, M3 muscarinic receptor; experiment: as above
Text: as §2

[5] = system: nontransfected CHO-K1 cells; experiment: [35S]GTPγS binding to membranes from nontransfected cells; assay type: biochemical, Chinese hamster
Procedure: Figure 6 Effects of rapacuronium on ACh-induced [^35S]GTPγS binding to membranes. Membranes from CHO cells expressing individual subtypes of muscarinic receptors or nontransfected CHO-K1 cells were preincubated for 60 min with buffer (closed symbols) or with rapacuronium (open symbols). […] Data are expressed as fold increase of basal [^35S]GTPγS binding and are presented as means ± SE from 3 independent experiments performed in quadruplicates. Curves are fits of Eq. 5 to data.

M2 muscarinic receptor [6] = biological target: T3, M2 muscarinic receptor (Homo sapiens, UniProt P08172); experiment: [3H]NMS dissociation
T3 sequence (P08172 1-466): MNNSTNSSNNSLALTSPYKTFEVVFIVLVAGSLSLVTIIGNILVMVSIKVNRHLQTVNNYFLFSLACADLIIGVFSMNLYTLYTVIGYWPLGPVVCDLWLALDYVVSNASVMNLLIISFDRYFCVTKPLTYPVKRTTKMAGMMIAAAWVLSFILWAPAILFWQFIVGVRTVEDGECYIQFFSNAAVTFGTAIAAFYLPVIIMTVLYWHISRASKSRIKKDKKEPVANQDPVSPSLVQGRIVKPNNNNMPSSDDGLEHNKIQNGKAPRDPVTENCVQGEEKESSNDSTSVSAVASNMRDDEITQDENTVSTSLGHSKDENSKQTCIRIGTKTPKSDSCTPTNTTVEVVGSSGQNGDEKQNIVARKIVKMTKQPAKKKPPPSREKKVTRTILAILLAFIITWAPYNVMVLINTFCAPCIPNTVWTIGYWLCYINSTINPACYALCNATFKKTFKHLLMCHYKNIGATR
Text: y, radioligand binding at time x normalized to binding at time 0; koff1 and koff2, dissociation rate constants; f2, fraction of binding site with dissociation rate constant koff2. When both Eq. 7a and 7b were fitted to data the better fit was chosen based on sum of squares F-test and runs test.

M4 muscarinic receptor = biological target: T4, M4 muscarinic receptor (Homo sapiens, UniProt P08173); experiment: [35S]GTPγS binding to membranes; assay type: biochemical; set-up: host or cells: CHO cells, stably transfected; membranes; details: for EMAX of ACh on [^35S]GTPγS binding: fold of basal
T4 sequence (P08173 1-479): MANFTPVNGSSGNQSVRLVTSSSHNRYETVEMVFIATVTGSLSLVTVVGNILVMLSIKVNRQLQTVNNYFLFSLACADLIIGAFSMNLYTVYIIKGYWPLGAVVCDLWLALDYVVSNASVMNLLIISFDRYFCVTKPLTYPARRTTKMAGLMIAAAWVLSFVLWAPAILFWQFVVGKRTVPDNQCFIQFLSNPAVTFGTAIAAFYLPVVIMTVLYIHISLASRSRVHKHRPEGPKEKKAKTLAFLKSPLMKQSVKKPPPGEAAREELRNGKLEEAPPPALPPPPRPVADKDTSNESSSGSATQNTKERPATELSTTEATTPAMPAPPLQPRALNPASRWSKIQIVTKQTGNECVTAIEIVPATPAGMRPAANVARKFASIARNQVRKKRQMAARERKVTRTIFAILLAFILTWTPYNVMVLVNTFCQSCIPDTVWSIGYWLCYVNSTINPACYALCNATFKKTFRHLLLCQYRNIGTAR
Procedure: For determination of [^35S]GTPγS binding to G-proteins in membranes a final concentration of 200 pM (M1, M3 and M5 receptors) or 500 pM (M2 and M4 receptors) of [^35S]GTPγS was used. Incubation medium was supplemented with 5 μM (M1, M3 and M5 receptors) or 50 μM (M2 and M4 receptors) GDP. […] Incubation with [^35S]GTPγS was carried out for 20 min and free ligand was removed by filtration as described above. Filtration and washing with ice-cold water lasted for 9 s (wash-aspirate button time).

M2 muscarinic receptor [7] = biological target: T3, M2 muscarinic receptor; experiment: Effect of rapacuronium on high-affinity 20 nM [3H]ACh binding; set-up: host or cells: CHO cells, stably transfected; membrane preparation
Text: as §2

M2 muscarinic receptor [8] = biological target: T3, M2 muscarinic receptor; experiment: Effect of rapacuronium on low-affinity ACh binding ([3H]NMS + GTPγS + ACh); set-up: host or cells: CHO cells, stably transfected; membrane preparation
Text: Data are expressed as percent of specific binding in the absence of rapacuronium. […] Data are means ± SE from 3 independent experiments performed in quadruplicates. Curves are fits of Eq. 3 (circles) and Eq. 4 (squares and triangles) to data prior to normalization.

[9] = read-out: pKA of rapacuronium (converted)
[10] = M2, negative value = negative cooperativity

Structure (SMILES): C=CC[N+]1([C@H]2C[C@H]3[C@@H]4CC[C@H]5C[C@H](OC(C)=O)[C@@H](N6CCCCC6)C[C@]5(C)[C@H]4CC[C@]3(C)[C@H]2OC(=O)CC)CCCCC1 [rapacuronium]
- BMAX of [^3H]NMS (M1 muscarinic receptor [1]; + 10 μM rapacuronium): 2.03 ± 0.15 fmol/μg of protein
- BMAX of [^3H]NMS (M1 muscarinic receptor [1]; + 100 μM rapacuronium): 1.85 ± 0.17 fmol/μg of protein
- BMAX of [^3H]NMS (M3 muscarinic receptor [2]; + 10 μM rapacuronium): 1.67 ± 0.14 fmol/μg of protein
- BMAX of [^3H]NMS (M3 muscarinic receptor [2]; + 100 μM rapacuronium): 1.59 ± 0.16 fmol/μg of protein
- pα, cooperativity with [^3H]ACh high affinity binding (M1 muscarinic receptor [3]; M1, negative value = negative cooperativity): -1.30 ± 0.07
- Kd (M1 muscarinic receptor [3]; [9]): 4.27 µM
- pα, cooperativity with [^3H]ACh high affinity binding (M3 muscarinic receptor [4]; M3, negative value = negative cooperativity): -1.26 ± 0.05
- Kd (M3 muscarinic receptor [4]; [9]): 15.8 µM
- effect on [^35S]GTPγS binding [5]: did not decrease
- decrease in rate of [^3H]NMS dissociation (M2 muscarinic receptor [6]; 100 μM rapacuronium): 7 fold
- f2, fraction of sites with faster dissociation (M2 muscarinic receptor [6]; + 100 μM rapacuronium): 23 ± 5%
- koff1 of [^3H]NMS dissociation (M2 muscarinic receptor [6]; + 100 μM rapacuronium): 0.026 ± 0.002* min^-1
- koff2 of [^3H]NMS dissociation (M2 muscarinic receptor [6]; + 100 μM rapacuronium): 0.0127 ± 0.00183 s⁻¹
- EC50 (M4 muscarinic receptor): 36.3 µM
- EMAX of ACh on [^35S]GTPγS binding (M4 muscarinic receptor; M4, + 0.1 μM rapacuronium): 2.95 ± 0.11
- EMAX of ACh on [^35S]GTPγS binding (M4 muscarinic receptor; M4, + 1 μM rapacuronium): 2.80 ± 0.12
- EMAX of ACh on [^35S]GTPγS binding (M4 muscarinic receptor; M4, + 10 μM rapacuronium): 2.32 ± 0.16
- EMAX of rapacuronium on [^35S]GTPγS binding (M4 muscarinic receptor; M4, rapacuronium alone, normalized to absence of rapacuronium): 0.86 ± 0.06
- pα, cooperativity with [^3H]ACh high affinity binding (M2 muscarinic receptor [7]; [10]): -1.46 ± 0.08
- Kd (M2 muscarinic receptor [7]; [9]): 2.82 µM
- pβ, cooperativity with ACh low affinity binding (M2 muscarinic receptor [8]; [10]): -1.52 ± 0.06
- Kd (M2 muscarinic receptor [8]; [9]): 2.75 µM
